Test results published in paper PMC10010340, “The Wnt Pathway Inhibitor RXC004 Blocks Tumor Growth and Reverses Immune Evasion in Wnt Ligand–dependent Cancer Models” (Cancer Research Communications, 2022).

Tests used:
[1] = test system: CT26 tumors; test: CT26/BALB/c syngeneic model; type: in vivo, mouse (BALB/c); conditions: RXC004 1.5 or 5 mg/kg once daily; anti-PD-1 10 mg/kg every 3 days
Protocol: CT26/BALB/c syngeneic model was performed at ProQuinase GmbH. Mouse CT26 cells (5 × 10^5) were subcutaneously implanted in the flanks of the immunocompetent female BALB/c mice. Treatment was initiated once tumors reached approximately 50 mm^3. RXC004 was dosed orally at 1.5 or 5 mg/kg (once daily). Anti-PD-1 (BioXCell) or isotype control was dosed every 3 days at 10 mg/kg i.p. Tumor volume was measured over time. For immunophenotyping the tumor infiltrate, tumors from a separate study were resected at day 14, weighed, digested, and stained for flow cytometry analysis by Beckton Dickenson LSR Fortessa. T-cell analysis panel included viability dye, CD45, CD3, CD4, CD8, CD25, and FOXP3.

[2] = test system: SNU-1411 xenograft; test: Xenograft pilot study; type: in vivo, mouse (NOD-SCID); conditions: SNU-1411, 1.5 mg/kg twice daily oral
Protocol: The in vivo pilot studies were performed at Axis Bioservices. HPAF-II (5 × 10^6 cells; athymic nude mice), AsPC1 (3 × 10^6 cells; athymic nude mice), and SNU-1411 (1 × 10^7 cells; NOD-SCID mice) were implanted bilaterally, subcutaneously, whereas HCT116 (3 × 10^6 cells; athymic nude mice) were implanted in a single flank. Animals were randomized into the indicated groups and treatment initiated once tumor volumes reached approximately 100–150 mm^3. Dosing was either 1.5 mg/kg twice daily RXC004 for 7–13 days then once daily for the remainder of study (up to 29 days), or 28 days 1.5 mg/kg twice daily RXC004 for HCT116. In these and all other animal studies, unless otherwise specified, RXC004 was dosed orally in 0.5% carboxymethylcellulose + 0.1% Tween-80. For AsPC1, an ascites model, end of study tumor weight (mg) was measured. A total of 12 hours after the final dose, RNA was extracted [GenElute RNA isolation kit (#RTN70, Sigma)] from snap frozen tumor for qRT-PCR expression analysis of Axin2, c-Myc, RNF43, MUC4, and MUC5AC relative to appropriate housekeepers.

[3] = test system: SNU-1411 xenograft; test: SNU-1411 xenograft dose-response study; type: in vivo, mouse (NOD-SCID); conditions: day 19; 1.5 and 5 mg/kg once daily, 1.5 mg/kg twice daily continuous or 5-day on/2-day off
Protocol: To explore dose–response effects in vivo, SNU-1411 (1 × 10^7 cells) were implanted into NOD-SCID mice subcutaneously at Axis Bioservices. Animals were randomized into the indicated groups and oral dosing of RXC004 was initiated when tumors reached approximately 200 mm^3. Tumor volume measurements were taken at day 19, n ≥9 per group. Pharmacokinetic/pharmacodynamic analysis in SNU1411/NOD-SCID mice was performed in a separate study at Axis Biosciences, with tissue and plasma extracted for assessments after 7 days of RXC004 dosing. Tumor was divided into two sections; one section snap frozen and the other processed by FFPE. RXC004 levels were determined in snap frozen tumor and blood samples by LC/MS-MS. Expression analysis of the indicated genes was performed on snap frozen tumor as described above. Serial FFPE tumor sections were stained with H&E, anti-Ki67 (Abcam #Ab15580) or the dual mucin stain Alcian-blue/periodic acid shift (AB-PAS) at Histologix. IHC images were quantified using HALO software and modules (Indica Labs). The AB-PAS images were analyzed with the area quantification module on tumor area. […] The Ki67 images were analyzed with the multiplex IHC module and number of Ki67-positive cells were determined per mm^2 of total or differentiated tumor area.

[4] = test system: recombinant CYP enzymes; test: Recombinant CYP enzyme assays (metabolism); type: in vitro ADME
[5] = molecular target: T1, CYP2C9 (Homo sapiens, UniProt P11712); test: Cytochrome P450 inhibition in human liver microsomes; type: in vitro ADME
T1 construct: from tissue; host or cells: human liver microsomes
T1 sequence (P11712 whole entry): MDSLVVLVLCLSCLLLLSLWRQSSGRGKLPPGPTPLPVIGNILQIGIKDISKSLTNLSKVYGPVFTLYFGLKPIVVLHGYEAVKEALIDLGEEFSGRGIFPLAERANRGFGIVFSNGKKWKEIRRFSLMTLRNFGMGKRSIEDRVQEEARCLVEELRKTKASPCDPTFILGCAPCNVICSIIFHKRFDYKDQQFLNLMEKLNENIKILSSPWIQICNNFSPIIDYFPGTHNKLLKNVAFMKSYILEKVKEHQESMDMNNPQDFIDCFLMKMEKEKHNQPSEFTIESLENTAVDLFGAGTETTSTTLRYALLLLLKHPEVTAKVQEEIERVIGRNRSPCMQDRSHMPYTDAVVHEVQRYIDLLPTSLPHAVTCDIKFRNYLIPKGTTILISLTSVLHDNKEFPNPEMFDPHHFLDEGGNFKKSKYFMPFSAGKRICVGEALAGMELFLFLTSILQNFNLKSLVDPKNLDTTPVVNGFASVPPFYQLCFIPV
Protocol: (§1) Cytochrome P450 (CYP) assays were performed using human liver microsomes incubated with P450 specific substrates as recommended by the FDA ([19]) at a concentration equivalent to Km in the presence of 0.03–30 μmol/L RXC004, or solvent control. Concentration of the metabolites was analyzed by LC/MS-MS.

[6] = molecular target: T2, CYP2C19 (Homo sapiens, UniProt P33261); test: as above; type: in vitro ADME
T2 construct: from tissue; host or cells: human liver microsomes
T2 sequence (P33261 whole entry): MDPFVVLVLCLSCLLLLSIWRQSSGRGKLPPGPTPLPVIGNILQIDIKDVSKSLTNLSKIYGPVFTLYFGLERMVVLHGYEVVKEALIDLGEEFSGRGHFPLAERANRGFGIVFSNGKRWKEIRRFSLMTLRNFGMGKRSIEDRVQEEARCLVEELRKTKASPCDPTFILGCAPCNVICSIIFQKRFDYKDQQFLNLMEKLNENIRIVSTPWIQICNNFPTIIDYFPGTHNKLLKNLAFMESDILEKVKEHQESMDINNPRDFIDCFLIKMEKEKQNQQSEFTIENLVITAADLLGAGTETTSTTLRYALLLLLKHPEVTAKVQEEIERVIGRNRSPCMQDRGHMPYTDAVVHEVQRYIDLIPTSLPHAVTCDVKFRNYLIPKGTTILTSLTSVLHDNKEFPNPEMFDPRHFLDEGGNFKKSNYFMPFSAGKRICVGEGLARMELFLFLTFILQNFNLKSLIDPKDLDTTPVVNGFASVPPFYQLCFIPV
Protocol: as §1

[7] = molecular target: T3, CYP3A4 (Homo sapiens, UniProt P08684); test: as above; type: in vitro ADME
T3 construct: from tissue; host or cells: human liver microsomes
T3 sequence (P08684 whole entry): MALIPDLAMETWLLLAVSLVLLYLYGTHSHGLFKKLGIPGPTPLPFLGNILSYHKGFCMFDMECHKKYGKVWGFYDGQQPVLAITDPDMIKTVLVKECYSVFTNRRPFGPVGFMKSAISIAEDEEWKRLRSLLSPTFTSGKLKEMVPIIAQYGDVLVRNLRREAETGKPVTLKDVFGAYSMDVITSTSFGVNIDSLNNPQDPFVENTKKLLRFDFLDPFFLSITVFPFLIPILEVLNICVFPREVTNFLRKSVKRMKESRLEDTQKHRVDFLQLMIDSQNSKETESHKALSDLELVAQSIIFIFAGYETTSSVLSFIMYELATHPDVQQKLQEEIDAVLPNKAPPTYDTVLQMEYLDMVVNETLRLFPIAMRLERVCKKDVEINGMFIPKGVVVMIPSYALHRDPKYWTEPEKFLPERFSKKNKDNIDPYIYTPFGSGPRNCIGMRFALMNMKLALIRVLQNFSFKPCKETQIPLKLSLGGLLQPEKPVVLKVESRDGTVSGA
Protocol: as §1

[8] = molecular target: T4, CYP1A2 (Homo sapiens, UniProt P05177); test: as above; type: in vitro ADME
T4 construct: from tissue; host or cells: human liver microsomes
T4 sequence (P05177 whole entry): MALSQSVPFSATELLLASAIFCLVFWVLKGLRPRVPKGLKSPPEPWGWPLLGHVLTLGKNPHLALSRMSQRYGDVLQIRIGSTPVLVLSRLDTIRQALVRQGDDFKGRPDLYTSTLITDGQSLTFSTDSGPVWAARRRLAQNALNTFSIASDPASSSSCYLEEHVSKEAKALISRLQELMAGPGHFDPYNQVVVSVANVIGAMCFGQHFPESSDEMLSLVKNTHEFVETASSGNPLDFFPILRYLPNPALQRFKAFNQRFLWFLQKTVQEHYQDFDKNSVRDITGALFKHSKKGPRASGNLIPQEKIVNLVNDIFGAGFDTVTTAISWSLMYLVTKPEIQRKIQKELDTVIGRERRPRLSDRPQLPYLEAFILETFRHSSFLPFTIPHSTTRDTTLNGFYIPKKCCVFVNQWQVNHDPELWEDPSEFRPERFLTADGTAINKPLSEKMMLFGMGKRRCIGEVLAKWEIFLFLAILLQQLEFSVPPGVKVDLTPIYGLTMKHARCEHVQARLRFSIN
Protocol: as §1

[9] = molecular target: T5, CYP2D6 (Homo sapiens, UniProt P10635); test: as above; type: in vitro ADME
T5 construct: from tissue; host or cells: human liver microsomes
T5 sequence (P10635 whole entry): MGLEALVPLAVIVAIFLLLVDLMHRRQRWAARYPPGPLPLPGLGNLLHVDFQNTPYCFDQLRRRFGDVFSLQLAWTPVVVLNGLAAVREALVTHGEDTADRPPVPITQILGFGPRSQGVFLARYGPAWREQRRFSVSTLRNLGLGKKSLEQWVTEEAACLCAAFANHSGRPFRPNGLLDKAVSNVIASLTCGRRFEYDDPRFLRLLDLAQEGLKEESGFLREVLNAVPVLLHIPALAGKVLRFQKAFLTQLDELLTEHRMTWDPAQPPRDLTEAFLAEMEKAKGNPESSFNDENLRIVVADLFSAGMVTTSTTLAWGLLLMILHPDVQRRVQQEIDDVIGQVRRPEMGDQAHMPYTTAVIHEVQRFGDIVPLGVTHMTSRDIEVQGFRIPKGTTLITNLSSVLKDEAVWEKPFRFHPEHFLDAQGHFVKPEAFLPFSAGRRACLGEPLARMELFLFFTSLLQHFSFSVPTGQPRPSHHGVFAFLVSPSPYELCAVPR
Protocol: as §1

[10] = test system: β-catenin protein levels in L-Wnt3a cells; test: β-catenin expression by flow cytometry; type: cell-based, mouse; conditions: 100 nmol/L, 24 hours
Protocol: Reporter Assay: Media from L-Wnt3a cells (L cells overexpressing Wnt3a; ATCC CRL-2647) treated with a concentration-series of RXC004, was incubated with the LEADING LIGHT Wnt Reporter Cell Line (Enzo life sciences; ENZ-61002-0001). Luciferase was detected using the ONE-Glo Luciferase Assay System (Promega E6120), data were normalized to DMSO-treated controls and IC50 values determined. Recombinant Wnt3a (Bio-Techne #1324-WN-010) was used at 1 μg/mL. β-catenin expression: L-Wnt3a cells were treated with RXC004 (100 nmol/L) or DMSO (0.1%) for 24 hours. Cellular β-catenin protein levels were quantified by staining with anti-β-catenin (AlexaFluor488, BD 562505) and assessment using an Agilent Novocyte-3000 flow cytometer.

[11] = test system: SNU-1411 xenograft; test: Pharmacokinetic/pharmacodynamic analysis in SNU-1411/NOD-SCID mice, 7 days; type: in vivo, mouse (NOD-SCID)
Protocol: (§2) To explore dose–response effects in vivo, SNU-1411 (1 × 10^7 cells) were implanted into NOD-SCID mice subcutaneously at Axis Bioservices. Animals were randomized into the indicated groups and oral dosing of RXC004 was initiated when tumors reached approximately 200 mm^3. Tumor volume measurements were taken at day 19, n ≥9 per group. Pharmacokinetic/pharmacodynamic analysis in SNU1411/NOD-SCID mice was performed in a separate study at Axis Biosciences, with tissue and plasma extracted for assessments after 7 days of RXC004 dosing. Tumor was divided into two sections; one section snap frozen and the other processed by FFPE. RXC004 levels were determined in snap frozen tumor and blood samples by LC/MS-MS. Expression analysis of the indicated genes was performed on snap frozen tumor as described above. Serial FFPE tumor sections were stained with H&E, anti-Ki67 (Abcam #Ab15580) or the dual mucin stain Alcian-blue/periodic acid shift (AB-PAS) at Histologix. IHC images were quantified using HALO software and modules (Indica Labs). The AB-PAS images were analyzed with the area quantification module on tumor area. A classifier was trained to detect differentiated and nondifferentiated tumor areas in RXC004-treated tumors using the AB-PAS–stained slides. Image registration was used to assign annotations from AB-PAS images to Ki67 images. The Ki67 images were analyzed with the multiplex IHC module and number of Ki67-positive cells were determined per mm^2 of total or differentiated tumor area.

[12] = as above; type: in vivo, mouse (NOD-SCID); conditions: NOD-SCID, mouse, plasma, oral; 20 ng/mL equivalent to 10× IC50; read-out: total plasma concentration equivalent to free IC50
Protocol: as §2

Cc1c(-c2ccnc(C(F)(F)F)c2)ncn1CC(=O)Nc1ccc(-c2cnccn2)cn1 [RXC004, 2-[5-methyl-4-[2-(trifluoromethyl)-4-pyridyl]imidazol-1-yl]-N-(5-pyrazin-2-yl-2-pyridyl)acetamide]
tumor growth [1]: limited effect on tumor growth | Wnt-responsive gene expression in tumor including c-Myc [2]: inhibition of Wnt-responsive gene expression | tumor growth [2]: reduction in tumor growth | tumor volume [3]: Significant reduction in tumor volume | metabolizing CYP enzyme [4]: exclusively metabolized by CYP3A4 | IC50 [5]: > 25 µM | IC50 [6]: > 25 µM | IC50 [7]: > 25 µM | IC50 [8]: > 25 µM | IC50 [9]: > 25 µM | β-catenin protein levels [10]: reduces β-catenin protein levels in L-Wnt3a cells back to baseline | c-Myc gene expression in tumor ([11]; 1.5 or 5 mg/kg once daily, 7 days): Inhibition of c-Myc gene expression in tumor | tumor differentiation and mucin levels (Alcian-blue/PAS) ([11]; intermediate effects at 1.5 mg/kg once daily, stronger at 5 mg/kg once daily): increased tumor differentiation and increased mucin levels | dose proportionality of levels in plasma and tumor ([11]; oral 1.5 or 5 mg/kg once daily, 7 days): good dose proportionality | Ki67-positive cells in tumor ([11]; total tumor area, more significantly in differentiated tumor): Ki67-positive cells were reduced | IC50 [12]: 2 ng/mL
